Drawing on the Kinase Knowledgebase extract (Sharma et al. 2016), this text covers IC50 for 34 compounds.

Where “and” joins values, the source holds several entries; their conditions need not be identical. Identical values can stand only once.

Chain of PIK3CD (Human) (O00329 whole entry, looked up): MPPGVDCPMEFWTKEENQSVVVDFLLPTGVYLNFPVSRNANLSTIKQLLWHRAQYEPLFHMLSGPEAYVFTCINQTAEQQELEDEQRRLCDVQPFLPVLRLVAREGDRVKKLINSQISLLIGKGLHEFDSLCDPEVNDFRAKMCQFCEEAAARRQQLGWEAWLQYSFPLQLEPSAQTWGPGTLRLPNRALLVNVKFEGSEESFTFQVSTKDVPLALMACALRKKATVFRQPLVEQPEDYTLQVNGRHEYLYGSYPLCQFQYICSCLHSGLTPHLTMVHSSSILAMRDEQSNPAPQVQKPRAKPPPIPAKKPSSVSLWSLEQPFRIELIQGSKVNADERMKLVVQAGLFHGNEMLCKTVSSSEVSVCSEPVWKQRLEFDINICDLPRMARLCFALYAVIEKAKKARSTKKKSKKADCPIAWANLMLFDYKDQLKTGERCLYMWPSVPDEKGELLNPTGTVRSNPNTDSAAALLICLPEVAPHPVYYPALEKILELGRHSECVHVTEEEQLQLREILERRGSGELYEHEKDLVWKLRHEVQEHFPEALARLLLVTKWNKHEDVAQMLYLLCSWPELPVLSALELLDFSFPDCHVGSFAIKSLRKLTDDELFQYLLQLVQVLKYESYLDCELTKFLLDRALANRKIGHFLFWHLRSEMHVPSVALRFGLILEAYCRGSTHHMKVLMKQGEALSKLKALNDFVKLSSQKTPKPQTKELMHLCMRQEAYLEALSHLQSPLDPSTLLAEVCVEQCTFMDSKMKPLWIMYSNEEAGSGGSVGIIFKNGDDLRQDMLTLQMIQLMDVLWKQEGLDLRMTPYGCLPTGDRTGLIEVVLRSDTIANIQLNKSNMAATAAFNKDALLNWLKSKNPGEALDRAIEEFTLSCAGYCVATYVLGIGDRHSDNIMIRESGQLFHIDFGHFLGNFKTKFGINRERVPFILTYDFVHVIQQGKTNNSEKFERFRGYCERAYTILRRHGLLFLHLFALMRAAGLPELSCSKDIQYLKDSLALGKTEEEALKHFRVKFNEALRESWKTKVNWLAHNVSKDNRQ

This assay has as its target PIK3CD (Human) (UniProt O00329). As to the kind of experiment: Assessment of PIK3CD Kinase Activity.
Consider `CC(Nc1nc(N)nc2[nH]cnc12)c1ccc2ccccc2c1-c1cncc(F)c1` (centres undefined), for which the half-inhibitory concentration (IC50) was below 50 nM.

In turn, `CC(Nc1ncnc2[nH]cnc12)c1cc(Cl)c2cccnc2c1N1CCN(C(=O)c2ccccc2F)CC1` (centres undefined) returned an IC50 of 250 to 500 nM. In the case of `CCC(=O)N[C@H]1CCN(c2c(C(C)Nc3ncnc4[nH]cnc34)cc(Cl)c3cccnc23)C1` (some centres undefined) it was below 50 nM. Consider `CC(Nc1ncnc2[nH]cnc12)c1cc(Cl)c2cccnc2c1-c1cccc(F)c1` (centres undefined), for which the IC50 was below 50 nM. `CC(Nc1ncnc2[nH]cnc12)c1cc(Cl)c2ccncc2c1N1CC[C@H](F)C1` (some centres undefined): the IC50 lay in the range of 250 to 500 nM. On to `CC(Nc1ncnc2[nH]cnc12)c1cc(Cl)c2cccnc2c1N1CCC(C#N)CC1` (centres undefined), for which the concentration for half-maximal inhibition (IC50) lay in the range of 100 to 250 nM. In the case of `CC(Nc1nc(N)nc2[nH]cnc12)c1ccc2ccccc2c1-c1cccc(F)c1` (centres undefined) it was 500 to 1000 nM. Then `CC(Nc1ncnc2[nH]cnc12)c1cc(Cl)c2cccnc2c1N1CCC(N2CCCCC2)CC1` (centres undefined), with 50 to 100 nM. In the case of `CC(=O)N1CCC(C(=O)N2CCN(c3c(C(C)Nc4ncnc5[nH]cnc45)cc(Cl)c4cccnc34)CC2)CC1` (centres undefined) it was below 50 nM.

Consider `CC(Nc1ncnc2[nH]cnc12)c1cc(F)c2ccnnc2c1-c1cc(F)cc(F)c1` (centres undefined), for which the half-inhibitory concentration (IC50) lay in the range of 100 to 250 nM. Then `CC(Nc1ncnc2[nH]cnc12)c1cc(Cl)c2ccnnc2c1-c1ccccc1F` (centres undefined), with < 50 nM and 50 to 100 nM and 250 to 500 nM; and `COC1CCCN(c2c(C(C)Nc3ncnc4[nH]cnc34)cc(Cl)c3cccnc23)C1` (centres undefined), with 250 to 500 nM and 100 to 250 nM; and `Cc1cc(C(C)Nc2ncnc3[nH]cnc23)c(-c2cccc(F)c2)c2nnccc12` (centres undefined), with < 50 nM and 500 to 1000 nM.

As for `CC(Nc1ncnc2[nH]cnc12)c1cc(Cl)c2conc2c1-c1cccc(F)c1` (centres undefined), the IC50 is below 50 nM. Then `CC(Nc1ncnc2[nH]cnc12)c1ccc2ccccc2c1-c1cccc(F)c1` (centres undefined), with 100 to 250 nM. Then `CCc1cc(C(C)Nc2ncnc3[nH]cnc23)c(-c2cccc(F)c2)c2ncccc12` (centres undefined), with 50 to 100 nM. Then `CC(Nc1ncnc2[nH]cnc12)c1ccc2cccnc2c1-c1cccc(F)c1` (centres undefined), with 250 to 500 nM; and `CC(Nc1ncnc2[nH]cnc12)c1cc(Cl)c2cccnc2c1N1CCN(C(=O)c2ccn(C)n2)CC1` (centres undefined), with below 50 nM.

`CC(Nc1ncnc2[nH]cnc12)c1cc(Cl)c2cccnc2c1N1CCC(CO)CC1` (centres undefined) gave a half-inhibitory concentration (IC50) of 100 to 250 nM.

The compound `CC(Nc1ncnc2[nH]cnc12)c1cc(Cl)c2cn[nH]c2c1-c1cc(F)cc(F)c1` (centres undefined) returned a concentration for half-maximal inhibition (IC50) below 50 nM. Compound `CC(=O)N[C@H]1CCN(c2c(C(C)Nc3ncnc4[nH]cnc34)cc(Cl)c3cccnc23)C1` (some centres undefined) yielded an IC50 below 50 nM. `CC(Nc1ncnc2[nH]cnc12)c1cc(Cl)c2cccnc2c1N1CCC(O)CC1` (centres undefined): the half-maximal inhibitory concentration (IC50) was below 50 nM. With `CC(Nc1ncnc2[nH]cnc12)c1cc(Cl)c2cccnc2c1N1CCN(C(=O)c2cnccn2)CC1` (centres undefined), the IC50 is below 50 nM. Then `Cc1noc(C)c1C(=O)N1CCN(c2c(C(C)Nc3ncnc4[nH]cnc34)cc(Cl)c3cccnc23)CC1` (centres undefined), with below 50 nM; and `CC(Nc1ncnc2[nH]cnc12)c1cc(Cl)c2cnn(C)c2c1-c1cc(F)cc(F)c1` (centres undefined), with below 50 nM.

The compound `COC1CCN(c2c(C(C)Nc3ncnc4[nH]cnc34)cc(Cl)c3cccnc23)CC1` (centres undefined) yielded a half-inhibitory concentration (IC50) of 50 to 100 nM.

Consider `COC(=O)N[C@H]1CCN(c2c(C(C)Nc3ncnc4[nH]cnc34)cc(Cl)c3cccnc23)C1` (some centres undefined), for which the IC50 was 50 to 100 nM and < 50 nM. In the case of `C[C@@H](Nc1ncnc2[nH]cnc12)c1cc(F)c2cccnc2c1-c1cccc(F)c1` it was below 50 nM. In the case of `Cc1cc(C(=O)N2CCN(c3c(C(C)Nc4ncnc5[nH]cnc45)cc(Cl)c4cccnc34)CC2)no1` (centres undefined) it was below 50 nM; in that of `CC(Nc1ncnc2[nH]cnc12)c1cc(Cl)c2cccnc2c1N1CCN(C(=O)C2CCC2)CC1` (centres undefined), below 50 nM. As to `CC(Nc1ncnc2[nH]cnc12)c1cc(F)c2ccnnc2c1-c1cccc(F)c1` (centres undefined), the IC50 was 100 to 250 nM and < 50 nM.

Turning to `COCCN1CCN(c2c(C(C)Nc3ncnc4[nH]cnc34)cc(Cl)c3cccnc23)CC1` (centres undefined), the 50% inhibitory concentration (IC50) is below 50 nM.

Turning to `CC(Nc1ncnc2[nH]cnc12)c1cc(Cl)c2cccnc2c1N1CCC(C#N)C1` (centres undefined), the concentration for half-maximal inhibition (IC50) lay within 100 to 250 nM. Then `CC(Nc1ncnc2[nH]cnc12)c1cc(Cl)c2ccnnc2c1-c1cncc(F)c1` (centres undefined), with 50 to 100 nM.

Broadly, the IC50 is the midpoint of a concentration-inhibition curve. Lower therefore signals greater potency.
